# In patent US8703483B2, “Reagents and methods for using human embryonic stem cells to evaluate toxicity of pharmaceutical compounds and other chemicals” (Wisconsin Alumni Research Foundation, priority 2006, dated 2014):
# System: human embryonic stem cells
# Assay: Metabolite profiling (LC/ESI-TOF mass spectrometry) of extracellular media of hESCs treated with alcohol
# Assay type: cell-based
# Details: ETOH 0.1; 4 D
# Description: Binned masses were annotated in silico by querying the neutral masses in several different databases. These databases included Metlin, Biological Magnetic Resonance Data Bank (BMRB), NIST Chemistry WebBook, and the Human Metabolome Database. A mass was considered identified when its neutral mass was within 10 ppm of a known compound annotated in one of the databases listed above.
smiles,measurement,value
CCO [ETOH],"Fold: 2-Oxo-4-methylthiobutanoic acid, mass 148.016, RT 52.88652",−2.444 fold
same,"Fold: 3-(2,5-Dimethoxy phenylpropionic acid, mass 210.0922, RT 36.18938)",1.864 fold
same,"Fold: (+)-Eudesmin, mass 386.1724, RT 51.65871",5.309 fold
same,"Fold: (+/−)-2-(4′-Isobutylphenyl)propionitrile, mass 187.1348, RT 46.31086",2.329 fold
same,"Fold: Acetylcarnitine / L-Glutamic acid n-butyl ester, mass 203.1138, RT 9.675726",−1.707 fold
same,"Fold: Benzenemethanol, 2-(2-aminopropoxy)-3-methyl- / a-[1-(ethylamino)ethyl]-p-hydroxy-Benzyl alcohol, mass 195.124, RT 31.19917",−2.225 fold
same,"Fold: Benzenemethanol, 2-(2-aminopropoxy)-3-methyl- / a-[1-(ethylamino)ethyl]-p-hydroxy-Benzyl alcohol, mass 195.1253, RT 38.99212",2.159 fold
same,"Fold: Homogentisic acid / Vanillic acid, mass 168.0434, RT 19.18355",−1.468 fold
same,"Fold: L-Oleandrosyl-oleandolide, mass 530.314, RT 23.87065",1.965 fold
same,"Fold: L-Urobilinogen;, mass 596.3543, RT 25.14927",1.396 fold
same,"Fold: N-Methyl-2-pyrrolidinone, mass 99.0689, RT 15.48433",1.434 fold
same,"Fold: Neu5Acalpha2-3Galbeta1-4Glcbeta-Sp / Neu5Acalpha2-6Galbeta1-4Glcbeta-Sp, mass 702.2497, RT 40.84822",−2.769 fold
same,"Fold: Pantothenol / dimethylbutanamide;, mass 205.1304, RT 6.747279",−1.2578 fold
same,"Fold: Phenanthrene-9,10-oxide, mass 194.073, RT 5.935143",−1.389 fold
same,"Fold: Unknown, mass 99.1043, RT 52.01225",2.703 fold
same,"Fold: Unknown, mass 120.2112, RT 13.40565",4.847 fold
same,"Fold: Unknown, mass 131.076, RT 14.35336",3.629 fold
same,"Fold: Unknown, mass 197.1769, RT 48.37093",−3.119 fold
same,"Fold: Unknown, mass 243.1089, RT 17.7027",−2.181 fold
same,"Fold: Unknown, mass 268.2487, RT 42.3656",−1.55 fold
same,"Fold: Unknown, mass 272.16, RT 43.99398",2.187 fold
same,"Fold: Unknown, mass 292.1862, RT 37.97297",2.239 fold
same,"Fold: Unknown, mass 293.9773, RT 4.014175",1.939 fold
same,"Fold: Unknown, mass 295.1521, RT 8.967061",1.513 fold
same,"Fold: Unknown, mass 298.174, RT 50.75387",−3.002 fold
same,"Fold: Unknown, mass 300.1147, RT 18.88505",2.686 fold
same,"Fold: Unknown, mass 301.1345, RT 7.719471",6.649 fold
same,"Fold: Unknown, mass 312.1341, RT 15.22357",−2.015 fold
same,"Fold: Unknown, mass 315.6732, RT 26.51229",2.015 fold
same,"Fold: Unknown, mass 325.2711, RT 18.82373",−1.756 fold
same,"Fold: Unknown, mass 325.2714, RT 20.94557",−2.074 fold
same,"Fold: Unknown, mass 353.2765, RT 3.85935",2.622 fold
same,"Fold: Unknown, mass 357.1781, RT 25.16993",2.217 fold
same,"Fold: Unknown, mass 359.1532, RT 24.01428",1.536 fold
same,"Fold: Unknown, mass 360.1321, RT 18.50245",2.11 fold
same,"Fold: Unknown, mass 362.2787, RT 83.72506",2.916 fold
same,"Fold: Unknown, mass 368.2122, RT 27.98054",1.695 fold
same,"Fold: Unknown, mass 379.1771, RT 20.76168",1.54 fold
same,"Fold: Unknown, mass 383.1721, RT 15.20829",1.915 fold
same,"Fold: Unknown, mass 384.2127, RT 23.38956",−2.556 fold
same,"Fold: Unknown, mass 387.0812, RT 19.97914",−1.977 fold
same,"Fold: Unknown, mass 388.2349, RT 46.346",1.947 fold
same,"Fold: Unknown, mass 403.1978, RT 51.66325",3.116 fold
same,"Fold: Unknown, mass 405.2001, RT 30.70733",2.668 fold
same,"Fold: Unknown, mass 408.1636, RT 16.21743",1.966 fold
same,"Fold: Unknown, mass 417.2338, RT 33.09057",2.033 fold
same,"Fold: Unknown, mass 417.2386, RT 21.14975",−1.98 fold
same,"Fold: Unknown, mass 420.1862, RT 26.77212",3.283 fold
same,"Fold: Unknown, mass 429.2533, RT 18.03482",−1.808 fold
same,"Fold: Unknown, mass 429.2535, RT 30.24237",1.805 fold
same,"Fold: Unknown, mass 431.2501, RT 35.58196",1.532 fold
same,"Fold: Unknown, mass 440.0223, RT 4.808947",−1.528 fold
same,"Fold: Unknown, mass 443.2381, RT 24.13915",2.986 fold
same,"Fold: Unknown, mass 443.3216, RT 67.0705",1.752 fold
same,"Fold: Unknown, mass 444.2237, RT 51.58546",2.131 fold
same,"Fold: Unknown, mass 460.9391, RT 33.51823",−4.518 fold
same,"Fold: Unknown, mass 467.3804, RT 46.51446",2.068 fold
same,"Fold: Unknown, mass 468.2002, RT 51.6158",1.875 fold
same,"Fold: Unknown, mass 471.7804, RT 30.72707",−2.836 fold
same,"Fold: Unknown, mass 478.2761, RT 30.28867",1.699 fold
same,"Fold: Unknown, mass 487.3472, RT 66.73744",2.931 fold
same,"Fold: Unknown, mass 489.2127, RT 21.72729",−1.51 fold
same,"Fold: Unknown, mass 510.8202, RT 31.22083",2.488 fold
same,"Fold: Unknown, mass 525.3161, RT 34.57864",1.551 fold
same,"Fold: Unknown, mass 526.2773, RT 51.73057",3.446 fold
same,"Fold: Unknown, mass 531.2876, RT 32.50661",2.106 fold
same,"Fold: Unknown, mass 531.3191, RT 35.58454",−1.252 fold
same,"Fold: Unknown, mass 531.3736, RT 66.31491",3.863 fold
same,"Fold: Unknown, mass 541.3274, RT 32.24719",2.162 fold
same,"Fold: Unknown, mass 545.3029, RT 17.6573",−1.395 fold
same,"Fold: Unknown, mass 554.8471, RT 31.891",2.038 fold
same,"Fold: Unknown, mass 555.2406, RT 15.78741",1.835 fold
same,"Fold: Unknown, mass 555.8505, RT 5.742094",−1.289 fold
same,"Fold: Unknown, mass 556.3971, RT 88.02533",−3.118 fold
same,"Fold: Unknown, mass 559.8329, RT 31.97996",−1.7213 fold
same,"Fold: Unknown, mass 574.3397, RT 24.7039",1.584 fold
same,"Fold: Unknown, mass 574.3427, RT 31.71105",1.75 fold
same,"Fold: Unknown, mass 576.096, RT 47.90467",1.361 fold
same,"Fold: Unknown, mass 589.6938, RT 35.26918",1.82 fold
same,"Fold: Unknown, mass 591.3789, RT 31.54325",1.578 fold
same,"Fold: Unknown, mass 603.3535, RT 32.67372",−2.63 fold
same,"Fold: Unknown, mass 619.3409, RT 33.68866",1.857 fold
same,"Fold: Unknown, mass 620.8861, RT 32.73907",2.249 fold
same,"Fold: Unknown, mass 635.4065, RT 32.08734",1.393 fold
